The text below walks through data of patent EP1150982B1, “PURINE INHIBITORS OF CYCLIN DEPENDENT KINASE 2 AND IkB-alpha” (CV THERAPEUTICS, INC., priority 1999, dated 2000).

Converted amounts (≈) assume the structure as drawn. Where two headings read alike, the source gives them in different places.

Experiment [1] addresses CDK2 (Homo sapiens, UniProt P24941). The experiment in a line: biochemical. The following applies: concentration required to inhibit CDK2 activity by 50%; 30 µM ATP, histone H1, 30°C for 30 min; read-out: IC50 (µg/mL) enzyme (converted). Here is the method: Compounds of this invention were assayed to determine their CDK2 inhibitory activity. The assay system (total volume of 50 µl) contained 50 mM Tris-HCl, pH 7.4, 10 mM MgCl2, 5 mM DTT, 1 µg of histone H1, 30 µM ATP (1 µCi of gamma^32P labeled ATP), 10 µg of BSA and 1 ng of purified CDK2. After incubation at 30°C for 30 min, the reaction was terminated by the addition of 10 µl of 10% TCA and the samples were blotted onto nitrocellulose filters. These filters were washed extensively in 10% TCA and assayed for radioactivity. Blanks contained no enzyme. […] After incubation at 30 min., the assay tubes were processed as above.

Experiment [2] concerns the target IκB-α kinase. The experiment in a line: IκB-α kinase assay (filter assay of affinity enriched IκB-α kinase from LPS-activated HUVEC lysate). Type of experiment: biochemical, human. The following applies: Table 11, Enzyme Activity of Selected Compounds.
Experiment [3] relates to rat aortic smooth muscle cells. Put plainly: tissue or blood. In kind it is cell-based. The following applies: read-out: IC50 (µg/mL) cells. As for the experimental part: (§1) Early passage rat aortic smooth muscle cells (CV Therapeutics Cell repository) were seeded in 48 well dishes (Falcon, […]) at a density of 20,000 cells/ml of DME containing 5% heat inactivated bovine serum. The cells were incubated in a standard tissue culture incubator for 48 hr. The medium was aspirated and the wells were replenished with 0.2 ml of fresh medium. […]

Experiment [4] deals with PupVSMC rat neonatal aortic smooth muscle cells. Put plainly: Cell proliferation assay, PupVSMC. Type of experiment: cell-based. Here is the method:
(§2) Early passage rat aortic smooth muscle cells (CV Therapeutics Cell repository) were seeded in 48 well dishes (Falcon, […]) at a density of 20,000 cells/ml of DME containing 5% heat inactivated bovine serum. The cells were incubated in a standard tissue culture incubator for 48 hr. The medium was aspirated and the wells were replenished with 0.2 ml of fresh medium. Compounds of this invention were added at concentrations ranging from 100 to 0.37 µg/ml. After 48 hr incubation, the medium was aspirated and the cultures were treated with 0.2 ml of saline and 0.25 µl of phenazine methosulfate solution containing MTS (Cell Titer 96® Aqueous Non-radioactive cell proliferation assay kit, Catalog # G 5430, Promega, 2800 Woods Hollow Road, Madison, WI 53711-5399). […]
(§3) Similar assays were performed using the following cell lines: P388 - mouse lymphoid neoplasm; L1210 - mouse lymphocytic leukemia; Caco2 human colon adenocarcinoma; MCF7 human breast adenocarcinoma; PupVSMC rat neonatal aortic smooth muscle cells; Ovcar human ovarian Carcinoma; Pancl human pancreatic adenocarcinoma; and HUVEC human umbilical cord endothelial cells.

The subject of experiment [5] is P388 - mouse lymphoid neoplasm. The experiment in a line: Cell proliferation assay, P388. In kind it is cell-based. The following applies: P388 cells, read-out: IC50 (µg/ml) for Inhibition of Cell Proliferation P 388.
The test system of experiment [6] is Caco2 human colon adenocarcinoma. Put plainly: cells. Type of experiment: cell-based. The following applies: Caco-2, read-out: IC50 (µg/ml) for Inhibition of Cell Proliferation Caco 2. As for the experimental part: as §2, §3
The subject of experiment [7] is L1210 - mouse lymphocytic leukemia. The experiment in a line: cells. In kind it is cell-based. The following applies: read-out: IC50 (µg/ml) for Inhibition of Cell Proliferation L 120. As for the experimental part:
as §2, §3

Experiment [8] deals with MCF7 human breast adenocarcinoma. The experiment in a line: Cell proliferation assay, MCF7. The following applies: MCF7 cells, read-out: IC50 (µg/ml) for Inhibition of Cell Proliferation MCF 7. Type of experiment: cell-based. As for the experimental part:
as §1, §3

In experiment [9] the test system is Pancl human pancreatic adenocarcinoma. The experiment in a line: Cell proliferation assay, Pancl. Type of experiment: cell-based. The following applies: Pancl cells, read-out: IC50 (µg/ml) for Inhibition of Cell Proliferation Panel. As for the experimental part:
as §1, §3

The subject of experiment [10] is Ovcar human ovarian Carcinoma. Put plainly: Cell proliferation assay, Ovcar. In kind it is cell-based. The following applies: Ovcar cells, read-out: IC50 (µg/ml) for Inhibition of Cell Proliferation OvC ar. Here is the method:
as §1, §3

For experiment [11], the system named is mammalian cells in culture. The following applies: literature; cited from earlier work.
Experiment [12] concerns neointima formation following balloon angioplasty in the rat carotid artery. Put plainly: Neointima formation following balloon angioplasty, rat carotid artery model. In kind it is in vivo. The following applies: 14 days recovery. The source says:
In this example, the left common carotid arteries of adult male rats (n=10 per experimental group) were surgically injured using a Fogarty arterial embolectomy catheter. Immediately after injury, the common carotid artery was bisected with a vascular clamp, thereby establishing an untreated and treated segment. A drug delivery catheter was then inserted into the distal half of the common carotid. After drug delivery, the catheter was removed and excess drug was washed out by removing the vascular clamp and re-establishing blood flow before closing the artery. […] The harvested tissue was sectioned and the neointimal area was digitized and measured with a computer planimetry system.

The mark [13] stands for this setting: inhibitory activity against the cell line, Table 9, unit inferred, read-out: PupVSMC.

For the compound `COc1ccc(CNc2nc(Cl)nc3c2ncn3C(F)(F)F)cc1`, the IC50 in experiment [1] is > 168 µM.
The compound `CC(C)n1cnc2c(NCc3ccc(-c4ccccc4)cc3)nc(NCCO)nc21` gave an IC50 in experiment [2] of 2.5 µM.
As for `COc1ccc(-c2ccc(CNc3nc(N(CCO)CCO)nc4c3ncn4C(C)C)cc2)cc1`, in [2], the IC50 is 11 µM.
Still for that read-out and setting: with `CC(C)n1cnc2c(NCc3ccc(-c4ccccn4)cc3)nc(N(CCO)CCO)nc21` the figure was 4.5 µM.
For `CC(C)n1cnc2c(NCc3ccc(S(N)(=O)=O)cc3)nc(NCCN)nc21`, in experiment [1], the IC50 is 22.2 µM.
The same measure, in the same setting: then `CC(C)n1cnc2c(NCc3ccc(C(F)(F)F)cc3)nc(N(CCO)CCO)nc21`, with 1.28 µM.
Take `CC(C)n1cnc2c(NCc3ccc(Cl)cc3)nc(N(CCN)CCO)nc21`: in experiment [3] (concentration required to inhibit cell proliferation by 50%, rat aortic smooth muscle cells, 48 hr incubation, MTS), the IC50 was 0.2 µg/mL (≈ 0.495 µM).
As for `CC(C)n1cnc2c(NCc3ccc(Cl)cc3)nc(N(CCO)CCO)nc21` [2-[(2-hydroxyethyl)(6-{[(4-chlorophenyl)methyl]amino}-9-(methylethyl)purin-2-yl)amino]ethan-1-ol], in [4] (setting [13]), the IC50 worked out at 0.3 µg/mL (≈ 0.741 µM).
`CC(C)n1cnc2c(Nc3ccc(-c4ccccc4)cc3)nc(N(CCO)CCO)nc21` [Compound 6, 2-diethanolamino-6-(4-phenylanilino)-9-isopropylpurine]: the IC50 in [5] stood at 1 µg/mL (≈ 2.31 µM); in experiment [6], 0.5 µg/mL (≈ 1.16 µM); in experiment [7] it was 4 µg/mL (≈ 9.25 µM); in experiment [8], 4 µg/mL (≈ 9.25 µM); in experiment [9], 4 µg/mL (≈ 9.25 µM); in experiment [10] it was 7 µg/mL (≈ 16.2 µM). Besides, in experiment [4] (VSMC, PupVSMC cells, Table 8, read-out: IC50 (µg/ml) for Inhibition of Cell Proliferation Pup VS MC), the IC50 was 1 µg/mL (≈ 2.31 µM).
As to `CCN(CC)c1nc(NCc2ccc(-c3ccccc3)cc2)c2ncn(C(C)C)c2n1`, the IC50 in experiment [2] was > 2.4 µM.
As for `COc1ccc(CNc2nc(Cl)nc3c2ncn3CC(C)C)cc1` [4-methoxybenzylamino; 2-methylpropyl; C1], the IC50 in [1] is 173 µM.
On to `CC(C)Cn1cnc2c(NCc3ccc(C(F)(F)F)cc3)nc(N(CCO)CCO)nc21`, for which the IC50 in experiment [1] was 130 µM.
In the case of `COc1ccc(CNc2nc(N(CCO)CCO)nc3c2ncn3C(C)C)cc1`, the IC50 in experiment [3] (Rattus norvegicus, 48 h) turned out to be 2.1 µg/mL (≈ 5.24 µM).
In [2], `CSc1ccc(Nc2nc(N(CCO)CCO)nc3c2ncn3C(C)C)cc1` [Compound 6A, 2-diethanolamine-6-(4-methylmercapto) anilino-9-isopropylpurine] displayed an IC50 of 12.4 µM.
`CC(C)n1cnc2c(NCc3ccc(-c4ccccc4)cc3)nc(N(CCO)CCO)nc21` [2-diethanolamino-6-(4-phenylbenzylamino)-9-isopropyl purine]: the IC50 in experiment [5] was < 1 µg/mL; in experiment [9], 1.3 µg/mL (≈ 2.91 µM); in [2] it was 1.1 µM.
On to `Cn1cnc2c(NCc3ccccc3)nc(NCCO)nc21` [olomoucine, 2-(hydroxyethylamino)-6-benzylamino-9-methylpurine], for which the “inhibits cell proliferation at an approximate concentration” value in experiment [11] was ~50 µg/mL.
Consider `COc1ccc(CNc2nc(N(CCO)CCO)nc3c2ncn3C(C)C)cc1` [Compound 3, 2-diethanolamino-6-(4-methoxybenzylamino)-9-isopropylarine], for which, in [4] (setting [13]), the IC50 is 0.4 µg/mL (≈ 0.999 µM). Besides, in experiment [12] (Figure 1, acute local delivery, saline vehicle alone 6%), the “reduced the neointimal area” value is “about 88%”.
On to `CC(C)n1cnc2c(NCc3ccc(Cl)cc3)nc(N(CCN)CCO)nc21` [2-[(2-aminoethyl)(6-{[(4-chlorophenyl)methyl]amino}-9-(methylethyl)purin-2-yl)amino]ethan-1-ol], for which the IC50 in experiment [4] (setting [13]) was found to be 0.3 µg/mL (≈ 0.743 µM).
On to `Cn1cnc2c(OCc3ccc(Cl)cc3)nc(Cl)nc21` [4-chlorobenzyloxy; Me; C1], for which the IC50 in experiment [1] was 194 µM.
Same read-out and setting: then `COC(=O)c1ccc(Cn2cnc3c(NCc4ccc(OC)cc4)nc(Cl)nc32)cc1`, with > 137 µM.
Regarding `CC(N)CNc1nc(NCc2ccc(Cl)cc2)c2ncn(C(C)C)c2n1` (centres unmarked) [{2-[(2-aminopropyl)amino]-9-(methylethyl)purin-6-yl}[(4-chlorophenyl)methyl]amine], the IC50 in [4] (setting [13]) was determined as 0.1 µg/mL (≈ 0.267 µM).
As to `CC(C)n1cnc2c(NCc3ccc(Cl)cc3)nc(NCCNCCO)nc21`, the IC50 in experiment [1] was 5 µM.
The same measure, in the same setting: then `Clc1ccc(COc2nc(Cl)nc3[nH]cnc23)cc1` [4-chlorobenzyloxy; H; C1], with 203 µM; and `COc1ccc(CNc2nc(Cl)nc3[nH]cnc23)cc1` [4-methoxybenzylamino; H; C1], with 207 µM.
`CC(C)n1cnc2c(Nc3ccc(Br)cc3)nc(N(CCO)CCO)nc21`: in [2], the IC50 turned out to be 14 µM.
With `COc1ccc(CNc2nc(N3CCOCC3)nc3c2ncn3C(C)C)cc1`, the values for the IC50 in experiment [5], in experiment [9] and in experiment [10] were > 5 µg/mL, 5.5 µg/mL (≈ 14.4 µM) and 4 µg/mL (≈ 10.5 µM), respectively.
In experiment [2], `CC(C)n1cnc2c(Nc3cccc(-c4ccc(C#N)cc4)c3)nc(N(CCO)CCO)nc21` returned an IC50 of 2.2 µM.
With `CC(C)n1cnc2c(NCc3ccc(Cl)cc3)nc(NCCN)nc21` [{2-[(2-aminoethyl)amino]-9-(methylethyl)purin-6-yl}[(4-chlorophenyl)methyl]amine], the IC50 in experiment [4] (setting [13]) stood at 0.1 µg/mL (≈ 0.278 µM). Besides, the “reducing the neointimal area” value in experiment [12] (acute local delivery, dose of 5 mg/mL, saline alone 6%) is listed as “about 90%”.
For the compound `COc1cccc(-c2ccc(CNc3nc(N(CCO)CCO)nc4c3ncn4C(C)C)cc2)c1`, the IC50 in experiment [2] is > 10 µM.
